Experimental findings from ChEMBL document CHEMBL1201862, “PubChem BioAssay data set” (2004) are described below.

A word on the IC50: it is the midpoint of a concentration-inhibition curve. A word on the EC50: it is the midpoint of the concentration-response curve.

The source made the active and inactive calls. Where only a bound is given, the exact number is not on record here.

For assay [1], the target named is Melanin-concentrating hormone receptor 1 (Homo sapiens, UniProt Q99705). Briefly: Fluorescence-based counterscreen for antagonists of the G-protein coupled receptor 7 (GPR7): cell-based high throughput dose response assay to identify antagonists of the melanin-concentrating hormone receptor 1 (MCHR1). It counts as functional. On the technique in general: The purpose of a counterscreen is to sort out artefacts and off-target activity.

Assay [2] has as its target T1, Eukaryotic translation initiation factor 2-alpha kinase 3 (Homo sapiens, UniProt Q9NZJ5). Briefly: Counterscreen assay for PERK inhibitors: Dose response cell-based high throughput screening assay to measure inhibition of PERK at 6 hours. [Related pubchem assays: 1522, 1416 ]. It counts as functional.
The target in assay [3] is T1, Eukaryotic translation initiation factor 2-alpha kinase 3. Briefly: Dose response cell-based high-throughput screening assay to measure PERK inhibition. [Related pubchem assays: 1416 ]. It counts as functional.
Assay [4] has as its target Cytochrome P450 2D6 (Homo sapiens, UniProt P10635). Put plainly: qHTS Assay for Inhibitors and Substrates of Cytochrome P450 2D6. [Related pubchem assays: 410 ]. As to conditions: read-out: Potency. It counts as ADME. Background: Quantitative high-throughput screening tests each substance at several concentrations.
The target in assay [5] is Bcl-2-like protein 10 (Homo sapiens, UniProt Q9HD36). Put plainly: Concentration-response of Bcl-B inhibitors by biochemical FP with TR3 (AID 1243). Format: functional.
Assay [6] has as its target Acyl-homoserine lactone acylase PvdQ (Pseudomonas aeruginosa (strain LESB58), UniProt Q9I194). Briefly: PvdQ acylase enzyme activity blockers – biochemical, fluorescence, plate reader and imaging, cherry-picks, dose response (AID 493231).
Assay [7] concerns the target Serine/threonine-protein phosphatase PP1-alpha catalytic subunit (Homo sapiens, UniProt P62136). Briefly: inhibition of protein phosphatase 1 activity – biochemical, fluorescence, dose response (AID 2403).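 Also: phosphatase turnover of OMFP into fluorescent 3-O-methylfluorescein.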
The nature of assay [8]: fluconazole-exposed Candida albicans growth modulators – fluorescence, retest, confirmation (AID 2467). It counts as functional, cell-based.
Assay [9] is described as follows: NIH-3T3 fibroblast cytotoxicity, dose response, cytotoxicity control, cell-based, fluorescence, Alamar Blue, secondary assay (AID 2327).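 Also: NIH-3T3 mouse fibroblasts cultured with fluconazole at 8 µg/mL.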 Format: functional. In general terms: The colour change of resazurin is a common sign of viable cells or microbes.
Assay [10] concerns the target Serine/threonine-protein phosphatase (Homo sapiens, UniProt Q9BPW0). Put plainly: Counterscreen for inhibitors of PP1: fluorescence-based biochemical high throughput dose response assay to identify inhibitors of Protein Phosphatase 5 (PP5). [Related pubchem assays: 2034 (Summary (PP5 inhibitors)), 1987 (PP5 inhibitors in singlate), 2235 (PP1 inhibitors in singlate)].

For assay [11], the target named is Neuropeptide Y receptor type 2 (Homo sapiens, UniProt P49146). Briefly: Fluorescence-based counterscreen for agonists of NPY-Y1: cell-based high-throughput dose response assay for agonists of NPY-Y2. Format: functional.
Assay [12] deals with HEK293. Briefly: Fluorescence-based counterscreen for potentiators or agonists of NPY-Y1: cell-based high-throughput dose response assay for inhibitors of cyclic nucleotide gated ion channel (CNGC) activity. In this assay, the parental HEK293 cell line transfected with a cyclic-nucleotide gated ion channel (CNGC)-based cAMP sensor is used to measure inhibition of isoproterenol-induced CNGC …. Format: functional. As to conditions: Homo sapiens.

For assay [13], the target named is Neuropeptide Y receptor type 1 (Homo sapiens, UniProt P25929). Put plainly: Fluorescence-based dose response cell-based high-throughput screening assay for agonists of NPY-Y1. [Related pubchem assays: 1697 (Screening assay (NPY-Y1 agonists).), 1359 (Screening assay (NPY-Y2 potentiators or agonists).), 1304 (Screening assay (NPY-Y1 potentiators or agonists).), 1704 (Screening assay (CNGC inhibitors).), 1791 (Summary AID.)]. It counts as functional.
Chain of Neuropeptide Y receptor type 1 (P25929 whole entry): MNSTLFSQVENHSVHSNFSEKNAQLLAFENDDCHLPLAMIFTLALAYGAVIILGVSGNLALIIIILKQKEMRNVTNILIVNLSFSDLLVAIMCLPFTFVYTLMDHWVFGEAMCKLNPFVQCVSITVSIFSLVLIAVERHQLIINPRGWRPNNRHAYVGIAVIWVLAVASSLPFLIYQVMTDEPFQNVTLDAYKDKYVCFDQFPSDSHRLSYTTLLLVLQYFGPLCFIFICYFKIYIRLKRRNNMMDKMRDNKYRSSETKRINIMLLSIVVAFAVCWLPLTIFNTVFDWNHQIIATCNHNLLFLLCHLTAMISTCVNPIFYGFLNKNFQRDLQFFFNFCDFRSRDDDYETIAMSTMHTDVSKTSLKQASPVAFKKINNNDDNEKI

T1 sequence (Q9NZJ5 whole entry): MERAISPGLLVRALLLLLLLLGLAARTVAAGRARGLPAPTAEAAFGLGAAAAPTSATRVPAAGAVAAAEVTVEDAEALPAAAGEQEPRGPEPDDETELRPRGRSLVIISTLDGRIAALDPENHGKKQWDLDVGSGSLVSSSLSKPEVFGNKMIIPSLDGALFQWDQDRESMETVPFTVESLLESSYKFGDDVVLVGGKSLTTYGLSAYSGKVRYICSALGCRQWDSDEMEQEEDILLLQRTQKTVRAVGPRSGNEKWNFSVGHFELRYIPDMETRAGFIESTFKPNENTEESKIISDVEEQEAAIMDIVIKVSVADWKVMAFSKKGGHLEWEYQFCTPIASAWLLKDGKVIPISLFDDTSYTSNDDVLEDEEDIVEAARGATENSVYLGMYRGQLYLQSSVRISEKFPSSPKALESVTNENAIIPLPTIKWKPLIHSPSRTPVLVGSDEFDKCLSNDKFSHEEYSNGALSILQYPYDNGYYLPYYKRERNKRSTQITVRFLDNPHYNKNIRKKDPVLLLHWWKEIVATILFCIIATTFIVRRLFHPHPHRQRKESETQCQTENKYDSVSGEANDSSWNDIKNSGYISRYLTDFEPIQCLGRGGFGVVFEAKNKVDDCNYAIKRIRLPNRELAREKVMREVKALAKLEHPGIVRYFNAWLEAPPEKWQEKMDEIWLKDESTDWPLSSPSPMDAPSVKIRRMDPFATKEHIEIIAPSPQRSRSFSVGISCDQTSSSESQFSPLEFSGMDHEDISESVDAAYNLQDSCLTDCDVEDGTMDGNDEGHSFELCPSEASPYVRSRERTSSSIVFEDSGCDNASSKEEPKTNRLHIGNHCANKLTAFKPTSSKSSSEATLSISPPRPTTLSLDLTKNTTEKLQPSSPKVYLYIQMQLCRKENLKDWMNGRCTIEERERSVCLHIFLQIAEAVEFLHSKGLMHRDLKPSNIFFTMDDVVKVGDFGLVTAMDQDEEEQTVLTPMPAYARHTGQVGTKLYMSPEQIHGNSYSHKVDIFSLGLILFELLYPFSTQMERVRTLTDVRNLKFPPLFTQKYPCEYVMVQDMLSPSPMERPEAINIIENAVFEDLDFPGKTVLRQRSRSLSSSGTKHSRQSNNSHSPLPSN
Chain of Bcl-2-like protein 10 (Q9HD36 whole entry): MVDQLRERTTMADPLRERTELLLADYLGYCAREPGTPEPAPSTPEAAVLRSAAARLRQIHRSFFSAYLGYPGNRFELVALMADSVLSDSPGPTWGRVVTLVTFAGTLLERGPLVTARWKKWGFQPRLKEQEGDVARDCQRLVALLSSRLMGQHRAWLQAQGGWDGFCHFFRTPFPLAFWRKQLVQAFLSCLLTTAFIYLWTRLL
Chain of Serine/threonine-protein phosphatase PP1-alpha catalytic subunit (P62136 whole entry): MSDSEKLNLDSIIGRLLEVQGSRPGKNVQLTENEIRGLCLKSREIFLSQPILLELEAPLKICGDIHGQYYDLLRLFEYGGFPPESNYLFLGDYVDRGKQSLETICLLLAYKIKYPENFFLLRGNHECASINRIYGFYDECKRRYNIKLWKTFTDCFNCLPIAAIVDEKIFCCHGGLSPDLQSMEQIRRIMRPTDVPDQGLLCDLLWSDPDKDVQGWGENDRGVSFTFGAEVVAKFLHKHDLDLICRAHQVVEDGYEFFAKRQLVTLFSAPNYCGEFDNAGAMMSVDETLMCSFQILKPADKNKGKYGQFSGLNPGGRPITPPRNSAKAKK
Chain of Acyl-homoserine lactone acylase PvdQ (Q9I194 24-193 limits assumed): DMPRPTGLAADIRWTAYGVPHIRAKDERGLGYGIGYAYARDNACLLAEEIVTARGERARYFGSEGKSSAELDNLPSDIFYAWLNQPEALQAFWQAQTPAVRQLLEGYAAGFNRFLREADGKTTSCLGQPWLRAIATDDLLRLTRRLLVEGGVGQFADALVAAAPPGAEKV
Chain of Acyl-homoserine lactone acylase PvdQ (Q9I194 217-762 limits assumed): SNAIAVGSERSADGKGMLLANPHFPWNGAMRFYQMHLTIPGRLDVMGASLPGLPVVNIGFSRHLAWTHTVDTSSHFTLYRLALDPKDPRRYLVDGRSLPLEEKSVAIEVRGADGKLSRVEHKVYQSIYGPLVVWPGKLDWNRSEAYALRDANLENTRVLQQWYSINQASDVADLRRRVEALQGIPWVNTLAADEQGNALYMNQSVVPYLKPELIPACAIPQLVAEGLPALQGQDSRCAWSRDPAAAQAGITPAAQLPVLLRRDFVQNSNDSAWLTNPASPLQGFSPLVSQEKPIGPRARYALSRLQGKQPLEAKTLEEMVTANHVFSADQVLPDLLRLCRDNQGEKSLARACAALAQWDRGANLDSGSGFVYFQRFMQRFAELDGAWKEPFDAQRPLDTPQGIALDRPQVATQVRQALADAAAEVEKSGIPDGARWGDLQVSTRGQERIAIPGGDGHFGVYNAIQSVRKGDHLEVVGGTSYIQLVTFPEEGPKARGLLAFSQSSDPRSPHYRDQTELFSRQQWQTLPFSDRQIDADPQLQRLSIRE
Chain of Melanin-concentrating hormone receptor 1 (Q99705 whole entry): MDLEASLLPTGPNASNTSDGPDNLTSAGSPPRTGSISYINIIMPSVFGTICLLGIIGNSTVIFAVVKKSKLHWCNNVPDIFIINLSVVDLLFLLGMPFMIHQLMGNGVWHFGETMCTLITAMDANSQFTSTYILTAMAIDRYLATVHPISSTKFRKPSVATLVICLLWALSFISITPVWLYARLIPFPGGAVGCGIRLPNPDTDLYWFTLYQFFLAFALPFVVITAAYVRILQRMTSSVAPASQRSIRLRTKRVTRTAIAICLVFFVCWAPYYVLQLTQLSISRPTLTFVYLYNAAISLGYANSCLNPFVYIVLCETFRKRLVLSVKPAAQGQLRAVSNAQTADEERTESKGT
Chain of Cytochrome P450 2D6 (P10635 whole entry): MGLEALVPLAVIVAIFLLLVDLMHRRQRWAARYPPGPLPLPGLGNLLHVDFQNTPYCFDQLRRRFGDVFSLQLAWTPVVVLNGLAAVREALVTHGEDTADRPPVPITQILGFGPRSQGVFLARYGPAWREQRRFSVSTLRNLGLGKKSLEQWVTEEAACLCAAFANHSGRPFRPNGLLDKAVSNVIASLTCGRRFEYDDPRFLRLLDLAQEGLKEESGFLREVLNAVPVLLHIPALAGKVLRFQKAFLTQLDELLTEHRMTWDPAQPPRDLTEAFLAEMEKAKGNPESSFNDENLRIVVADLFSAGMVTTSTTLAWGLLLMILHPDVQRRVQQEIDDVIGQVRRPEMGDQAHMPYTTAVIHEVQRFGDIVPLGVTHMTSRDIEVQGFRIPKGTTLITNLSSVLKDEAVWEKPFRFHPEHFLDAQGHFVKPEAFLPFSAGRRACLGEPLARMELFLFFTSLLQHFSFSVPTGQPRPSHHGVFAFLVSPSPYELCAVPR
Chain of Serine/threonine-protein phosphatase (Q9BPW0 whole entry): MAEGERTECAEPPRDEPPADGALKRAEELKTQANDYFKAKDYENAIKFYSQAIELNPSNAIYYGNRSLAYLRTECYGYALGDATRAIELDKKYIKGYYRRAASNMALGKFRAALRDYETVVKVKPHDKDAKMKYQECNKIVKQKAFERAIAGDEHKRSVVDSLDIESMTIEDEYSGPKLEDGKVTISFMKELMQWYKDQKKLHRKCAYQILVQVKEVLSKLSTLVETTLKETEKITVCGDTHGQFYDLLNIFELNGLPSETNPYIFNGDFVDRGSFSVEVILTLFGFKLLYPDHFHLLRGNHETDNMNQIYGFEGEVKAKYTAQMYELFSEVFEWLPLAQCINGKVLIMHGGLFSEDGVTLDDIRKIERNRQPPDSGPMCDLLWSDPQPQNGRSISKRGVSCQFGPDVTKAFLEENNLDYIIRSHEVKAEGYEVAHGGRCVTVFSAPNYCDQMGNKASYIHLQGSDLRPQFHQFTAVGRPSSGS
Chain of Neuropeptide Y receptor type 2 (P49146 whole entry): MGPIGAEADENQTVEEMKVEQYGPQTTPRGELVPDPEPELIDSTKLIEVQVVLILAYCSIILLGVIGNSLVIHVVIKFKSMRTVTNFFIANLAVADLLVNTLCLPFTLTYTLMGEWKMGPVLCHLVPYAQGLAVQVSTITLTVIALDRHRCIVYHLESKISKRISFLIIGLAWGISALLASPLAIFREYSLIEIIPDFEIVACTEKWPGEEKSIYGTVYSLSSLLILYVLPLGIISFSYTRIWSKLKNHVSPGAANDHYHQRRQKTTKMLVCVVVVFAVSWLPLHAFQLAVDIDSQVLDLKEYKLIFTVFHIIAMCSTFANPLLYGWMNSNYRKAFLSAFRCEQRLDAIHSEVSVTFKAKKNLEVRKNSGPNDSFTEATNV

As to `CCC(C)CCN1C(Nc2ccccc2)=NC[C@@H]1Cc1ccccc1` (stereo partly drawn), the IC50 in assay [1] is listed as 12.5 µM (not active).

For `Cc1ccc(C)c(OCC(=O)Nc2cc(C(=O)O)cc(C(=O)O)c2)c1`, the EC50 in [2] and in assay [3] was > 55.7 µM (not active) each time.

As to `C=CCc1cccc(C2C(C)CCC3C(=O)N4C(Cc5c([nH]c6ccccc56)C4c4cc(OC)c(OC)c(OC)c4)C(=O)N32)c1` (stereo not drawn), in assay [4], the AC50 is 3.98 µM (inconclusive).

On to `CN(C)c1ccc(NC(=O)/C=C\C(=O)O)cc1`, for which the EC50 in assay [5] was 20.4 µM (active).

Take `OC(c1cccc(Cl)c1)c1nccc2ccccc12` (stereo not drawn): the AC50 in assay [6] is 7.66 µM (active).

For `COc1cnc(-c2ccccn2)nc1Sc1cccc(Cl)c1`, the IC50 in assay [7] is 4.75 µM (active); in assay [10] it was > 67 µM (not active). Moreover, the EC50 is > 38 µM (not active) in [8] and > 160 µM (inactive) in [9].

Regarding `COc1ccc(Nc2oc(/C=C3/SC(=S)N(CC4CCCO4)C3=O)nc2C#N)cc1` (stereo not drawn), the EC50 is recorded as 12.8 µM (not active) in assay [11] and 13.5 µM (not active) in [13]. For the same molecule, in [12], the IC50 is 11.8 µM (not active).
